Assays:
[1] = test system: acute thermal nociception; assay: Hot-plate assay in mice after sc administration; assay type: in vivo; conditions: Mus musculus, 0.5 h, read-out: antinociceptive activity hot-plate assay ED50 (95% CI)
[2] = target: human KOR (Homo sapiens, UniProt P41145); assay: Competition binding assay, [3H]HS665, CHO-hKOR cell membranes; conditions: for selectivity KOR/MOR: ratio of Ki values; for Ki: read-out: opioid receptor binding, Ki, affinity KOR, CHO-hKOR membranes, [3H]HS665, mean ± SEM, at least three experiments
[3] = target: human DOR (Homo sapiens, UniProt P41143); assay: Competition binding assay, [3H]diprenorphine, CHO-hDOR cell membranes; conditions: for selectivity DOR/MOR: ratio of Ki values; for Ki: read-out: opioid receptor binding, Ki, affinity DOR, CHO-hDOR membranes, [3H]diprenorphine, mean ± SEM, at least three experiments
[4] = target: T1, human MOR (Homo sapiens, UniProt P35372); assay: [35S]GTPγS binding assay using CHO-hMOR cell membranes; assay type: biochemical; conditions: for Emax: read-out: functional activity [35S]GTPγS MOR % stim; for EC50: read-out: functional activity [35S]GTPγS MOR EC50, mean ± SEM
[5] = target: T1, human MOR; assay: Competition binding assay, [3H]DAMGO, CHO-hMOR cell membranes; conditions: for Ki: read-out: opioid receptor binding, Ki, affinity MOR, CHO-hMOR membranes, [3H]DAMGO, mean ± SEM, at least three experiments
[6] = test system: antinociception; conditions: cited from earlier work
[7] = test system: MOR; conditions: 14-methoxy group introduced into 1; ref 6a, 6b; cited from earlier work
[8] = test system: gastrointestinal motility; conditions: ref 6b; cited from earlier work

| Compound | ED50 [1] [mg/kg] | selectivity KOR/MOR [2] | Ki [2] [nM] | decrease in affinity to the DOR, 1a vs 1 ([3]; human DOR, Ki ratio) [fold] | selectivity DOR/MOR [3] | Ki [3] [nM] | Emax [4] [%] | EC50 ([4]; CHO-hMOR membranes) [nM] | Ki [5] [nM] | increase in antinociceptive potency vs oxymorphone (1) ([6]; ref 6a, 6b) [fold] | increase in MOR affinity vs oxymorphone (1) [7] [fold] | increased antinociceptive potency compared to 2 ([6]; ref 6b) [fold] | inhibition of gastrointestinal motility [8] | less constipating than 2 [8] [fold] | less constipating than morphine [8] [fold] | higher MOR/KOR selectivity ratio than 3 ([2]; 3a vs 3) [fold] | higher MOR/DOR selectivity ratio than 3 ([3]; 3a vs 3) | increase in the EC50 of 3a compared to 3 ([4]; [35S]GTPγS, human MOR) [fold] | increase in MOR affinity, 3a vs 3 ([5]; human MOR, Ki ratio) | % stim of the reference full agonist DAMGO in [35S]GTPγS binding ([4]; CHO-hMOR membranes, DAMGO's own stimulation, the reference for efficacies) [%] |
| --- | --- | --- | --- | --- | --- | --- | --- | --- | --- | --- | --- | --- | --- | --- | --- | --- | --- | --- | --- | --- |
| CN1CC[C@]23c4c5ccc(O)c4O[C@H]2C(=O)CC[C@@]3(O)[C@H]1C5 [Compound 1, oxymorphone, reference compound] | 0.382 | – | – | – | – | – | – | – | – | – | – | – | – | – | – | – | – | – | – | – |
| CN1CC[C@]23c4c5ccc(O)c4O[C@H]2CCC[C@@]3(O)[C@H]1C5 [Compound 1a, 3,14-Dihydroxy-4,5α-epoxy-17-methylmorphinan] | 0.383 | 13 | 21.6 ± 3.9 | ~3 | 122 | 201 ± 80 | 104 ± 7 | 8.99 ± 2.19 | 1.65 ± 0.5 | – | – | – | – | – | – | – | – | – | – | – |
| CO[C@@]12CCC(=O)[C@@H]3Oc4c(O)ccc5c4[C@@]31CCN(C)[C@@H]2C5 [Compound 2, 14-O-methyloxymorphone] | 0.0142 | 32 | 10.1 ± 3.1 | – | 28 | 8.8 ± 0.35 | 96.4 ± 5 | 1.45 ± 0.32 | 0.32 ± 0.08 | 40 | ~9 | – | – | – | – | – | – | – | – | – |
| CO[C@@]12CCC[C@@H]3Oc4c(O)ccc5c4[C@@]31CCN(C)[C@@H]2C5 [Compound 2a, 4,5α-Epoxy-3-hydroxy-14β-methoxy-17-methylmorphinan] | 0.0173 | 17 | 3.99 ± 0.63 | – | 36 | 8.64 ± 2.25 | 105 ± 6 | 1.37 ± 0.26 | 0.24 ± 0.08 | – | – | – | – | – | – | – | – | – | – | – |
| CN1CC[C@]23c4c5ccc(O)c4O[C@H]2C(=O)CC[C@@]3(OCc2ccccc2)[C@H]1C5 [Compound 3, 14-O-benzyloxymorphone] | 0.00238 | 2.8 | 1.27 ± 0.24 | – | 2.3 | 1.05 ± 0.42 | 101 ± 5 | 0.32 ± 0.16 | 0.45 ± 0.1 | – | – | 5 | negligible | 7 | 2.5 | – | – | – | – | – |
| CN1CC[C@]23c4c5ccc(O)c4O[C@H]2CCC[C@@]3(OCc2ccccc2)[C@H]1C5 [Compound 3a, 14β-Benzyloxy-4,5α-epoxy-3-hydroxy-17-methylmorphinan] | 0.00241 | 18 | 0.85 ± 0.05 | – | – | 0.89 ± 0.29 | 103 ± 8 | 0.13 ± 0.03 | 0.048 ± 0.011 | – | – | – | – | – | – | ~6 | about 9 fold | ~2.5 | up to 9 fold | – |
| CO[C@@]12CCC(=O)[C@]3(C)Oc4c(O)ccc5c4[C@@]31CCN(C)[C@@H]2C5 [Compound 4, 14-methoxymetopon] | 0.0271 | 60 | 15.1 ± 0.9 | – | 79 | 19.8 ± 1.3 | 99.2 ± 2.8 | 3.28 ± 0.81 | – | – | – | – | – | – | – | – | – | – | – | – |
| CO[C@@]12CCC[C@]3(C)Oc4c(O)ccc5c4[C@@]31CCN(C)[C@@H]2C5 [Compound 4a, 5β,17-Dimethyl-4,5α-epoxy-3-hydroxy-14β-methoxymorphinan] | 0.0251 | – | 7.92 ± 4.47 | – | – | 12.9 ± 1.6 | – | 2.95 ± 0.54 | 0.34 ± 0.08 | – | – | – | – | – | – | – | – | – | – | – |
| C[C@@H](NC(=O)[C@@H](N)Cc1ccc(O)cc1)C(=O)NCC(=O)N(C)[C@@H](Cc1ccccc1)C(=O)NCCO [DAMGO, [D-Ala^2,Me-Phe^4,Gly-ol^5]enkephalin, reference compound] | – | – | – | – | – | – | – | – | – | – | – | – | – | – | – | – | – | – | – | 221 ± 13 |
